Laboratory results taken from ChEMBL document CHEMBL1201862, “PubChem BioAssay data set” (2004).
The source made the active and inactive calls.

Experiments:
[1] = Luminescence Cell-Based Dose Retest to Confirm Inhibitors of Cancer Stem Cells. [Related pubchem assays (depositor defined):AID2717, AID2721]; type: functional; conditions: Homo sapiens
[2] = molecular target: T1, Replicative DNA helicase DnaB (Mycobacterium tuberculosis, UniProt P9WMR3); assay: DnaB intein splicing inhibitors, dose response, biochemical, cell-free fluorescence (AID 449749); type: functional
T1 sequence (P9WMR3 whole entry): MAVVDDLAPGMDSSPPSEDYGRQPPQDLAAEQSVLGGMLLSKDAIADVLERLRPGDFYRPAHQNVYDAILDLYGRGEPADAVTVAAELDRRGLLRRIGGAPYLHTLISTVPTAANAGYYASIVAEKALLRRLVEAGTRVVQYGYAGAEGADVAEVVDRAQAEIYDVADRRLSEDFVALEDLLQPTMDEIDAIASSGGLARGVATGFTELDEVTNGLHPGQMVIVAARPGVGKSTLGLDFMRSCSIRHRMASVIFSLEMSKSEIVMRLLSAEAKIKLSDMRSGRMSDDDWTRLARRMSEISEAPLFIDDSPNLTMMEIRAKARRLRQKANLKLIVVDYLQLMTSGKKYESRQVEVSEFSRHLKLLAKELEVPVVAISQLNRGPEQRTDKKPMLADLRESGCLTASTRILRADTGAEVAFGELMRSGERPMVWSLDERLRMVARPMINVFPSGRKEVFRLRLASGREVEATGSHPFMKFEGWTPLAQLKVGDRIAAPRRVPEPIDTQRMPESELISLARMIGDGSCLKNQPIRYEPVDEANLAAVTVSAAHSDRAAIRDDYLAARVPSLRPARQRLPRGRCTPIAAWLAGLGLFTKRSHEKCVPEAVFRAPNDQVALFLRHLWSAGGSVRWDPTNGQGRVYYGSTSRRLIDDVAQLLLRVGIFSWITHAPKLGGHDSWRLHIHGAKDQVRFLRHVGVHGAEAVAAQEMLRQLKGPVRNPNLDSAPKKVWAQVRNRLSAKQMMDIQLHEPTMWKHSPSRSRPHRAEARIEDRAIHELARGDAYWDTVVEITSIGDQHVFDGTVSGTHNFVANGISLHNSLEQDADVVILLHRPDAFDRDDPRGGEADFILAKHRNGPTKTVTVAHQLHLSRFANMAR

Vero [3] = assay: cells; type: functional, cell-based; conditions: Chlorocebus sabaeus
Protein RecA = molecular target: T2, Protein RecA (Mycobacterium tuberculosis, UniProt P9WHJ3); assay: Fluorescence Cell-Free Homogeneous Dose Retest to Identify Inhibitors of RecA-Intein Splicing Activity. [Related pubchem assays (depositor defined):AID2097, AID2223, AID489010, AID492950]; type: functional
T2 sequence (P9WHJ3 whole entry): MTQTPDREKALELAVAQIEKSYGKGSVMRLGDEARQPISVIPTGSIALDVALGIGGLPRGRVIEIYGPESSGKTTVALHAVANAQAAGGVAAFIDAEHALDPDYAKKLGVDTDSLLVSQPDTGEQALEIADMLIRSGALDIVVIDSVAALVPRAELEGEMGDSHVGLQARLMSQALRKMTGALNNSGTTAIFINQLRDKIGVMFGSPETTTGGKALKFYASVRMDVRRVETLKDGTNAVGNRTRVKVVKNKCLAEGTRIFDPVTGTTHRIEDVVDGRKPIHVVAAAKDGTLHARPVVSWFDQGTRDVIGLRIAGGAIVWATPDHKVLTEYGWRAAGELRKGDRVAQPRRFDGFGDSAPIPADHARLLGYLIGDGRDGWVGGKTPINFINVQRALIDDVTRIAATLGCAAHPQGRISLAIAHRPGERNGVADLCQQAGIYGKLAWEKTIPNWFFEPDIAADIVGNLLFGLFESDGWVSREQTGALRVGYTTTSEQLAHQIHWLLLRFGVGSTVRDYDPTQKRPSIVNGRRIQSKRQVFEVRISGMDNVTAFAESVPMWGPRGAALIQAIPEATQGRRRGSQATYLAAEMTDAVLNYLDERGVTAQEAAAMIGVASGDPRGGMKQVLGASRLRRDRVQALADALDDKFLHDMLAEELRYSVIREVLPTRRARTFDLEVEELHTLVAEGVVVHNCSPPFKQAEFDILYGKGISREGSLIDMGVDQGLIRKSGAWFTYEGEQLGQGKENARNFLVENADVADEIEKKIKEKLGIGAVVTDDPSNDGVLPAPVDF

Vero [4] = assay: cells; type: functional; conditions: Chlorocebus sabaeus
[5] = molecular target: T3, Mitochondrial peptide methionine sulfoxide reductase (Bos taurus, UniProt P54149); assay: Absorbance-based biochemical high throughput dose response assay for activators of Methionine sulfoxide reductase A (MsrA).; type: functional
T3 sequence (P54149 whole entry): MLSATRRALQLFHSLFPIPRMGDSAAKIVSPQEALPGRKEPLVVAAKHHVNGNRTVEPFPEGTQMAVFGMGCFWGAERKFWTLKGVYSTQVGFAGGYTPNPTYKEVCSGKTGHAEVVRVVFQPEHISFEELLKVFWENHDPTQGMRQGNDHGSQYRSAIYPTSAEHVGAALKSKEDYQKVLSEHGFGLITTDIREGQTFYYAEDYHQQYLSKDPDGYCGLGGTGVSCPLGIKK

[6] = molecular target: T4, DNA repair and recombination protein RAD54-like (Homo sapiens, UniProt Q92698); assay: inhibitors of human RAD54 branch migration, confirmation, biochemical, fluorescence, cherry-picked samples, dose series (AID 651657); type: functional
T4 sequence (Q92698 whole entry): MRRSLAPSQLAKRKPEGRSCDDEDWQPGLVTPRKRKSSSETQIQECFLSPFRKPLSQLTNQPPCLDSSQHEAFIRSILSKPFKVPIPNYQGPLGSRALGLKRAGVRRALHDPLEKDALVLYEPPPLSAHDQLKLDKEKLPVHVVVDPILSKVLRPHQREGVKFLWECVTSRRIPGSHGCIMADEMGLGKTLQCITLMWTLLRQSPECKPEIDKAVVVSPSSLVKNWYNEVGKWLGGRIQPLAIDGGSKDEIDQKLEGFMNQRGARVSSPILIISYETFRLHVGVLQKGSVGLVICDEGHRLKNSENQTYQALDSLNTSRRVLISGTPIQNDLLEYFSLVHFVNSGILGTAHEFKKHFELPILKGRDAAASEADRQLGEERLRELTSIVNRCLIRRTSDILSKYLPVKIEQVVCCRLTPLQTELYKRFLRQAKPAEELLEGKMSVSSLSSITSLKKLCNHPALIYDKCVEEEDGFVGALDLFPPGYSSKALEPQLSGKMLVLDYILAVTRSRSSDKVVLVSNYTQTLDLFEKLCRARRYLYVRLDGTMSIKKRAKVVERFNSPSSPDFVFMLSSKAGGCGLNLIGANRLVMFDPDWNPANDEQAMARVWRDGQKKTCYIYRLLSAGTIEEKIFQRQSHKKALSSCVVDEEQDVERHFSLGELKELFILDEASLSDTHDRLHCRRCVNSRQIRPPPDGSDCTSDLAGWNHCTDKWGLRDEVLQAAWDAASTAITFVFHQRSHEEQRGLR

[7] = NIH-3T3 fibroblast cytotoxicity, dose response, cytotoxicity control, cell-based, fluorescence, Alamar Blue, secondary assay (AID 2327); type: functional;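 also: NIH-3T3 mouse fibroblasts cultured with fluconazole at 8 µg/mL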
BJ [8] = assay: cytotoxicity toward BJ-TERT fibroblasts, dose response, cell-based, RAS-independent, luminescence (AID 1933); type: functional; conditions: Homo sapiens
BJ [9] = assay: cells; type: functional, cell-based; conditions: Homo sapiens
[10] = C. albicans growth with fluconazole, confirmation, fluorescence, retest (AID 2467); type: functional, cell-based
BJ [11] = assay: cytotoxicity toward BJ-TERT-LT-ST fibroblasts, dose response, cell-based, RAS-independent, luminescence (AID 1935); type: functional; conditions: Homo sapiens;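 also: BJ fibroblasts immortalized with TERT plus LT and ST oncogenes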
[12] = cytotoxicity toward DRD oncogenic fibroblasts, dose response, cell-based, non-viral oncogenic, luminescence (AID 1934); type: functional; conditions: Homo sapiens
[13] = cytotoxicity in HEK-293T cells, dose response, cytotoxicity control for TCR NF-kB inhibitor project, luminescence, T-cell screen hits (AID 489026); type: functional, cell-based;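 also: cells exposed to compound about 14 hours before the viability readout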
[14] = molecular target: T5, Microphthalmia-associated transcription factor (Homo sapiens, UniProt O75030); assay: TRPM1 promoter luciferase signal decrease, dose response, MITF inhibitor project, cell-based, SK-MEL-5, cherry-picked, set 3 (AID 493073); type: functional
T5 sequence (O75030 whole entry): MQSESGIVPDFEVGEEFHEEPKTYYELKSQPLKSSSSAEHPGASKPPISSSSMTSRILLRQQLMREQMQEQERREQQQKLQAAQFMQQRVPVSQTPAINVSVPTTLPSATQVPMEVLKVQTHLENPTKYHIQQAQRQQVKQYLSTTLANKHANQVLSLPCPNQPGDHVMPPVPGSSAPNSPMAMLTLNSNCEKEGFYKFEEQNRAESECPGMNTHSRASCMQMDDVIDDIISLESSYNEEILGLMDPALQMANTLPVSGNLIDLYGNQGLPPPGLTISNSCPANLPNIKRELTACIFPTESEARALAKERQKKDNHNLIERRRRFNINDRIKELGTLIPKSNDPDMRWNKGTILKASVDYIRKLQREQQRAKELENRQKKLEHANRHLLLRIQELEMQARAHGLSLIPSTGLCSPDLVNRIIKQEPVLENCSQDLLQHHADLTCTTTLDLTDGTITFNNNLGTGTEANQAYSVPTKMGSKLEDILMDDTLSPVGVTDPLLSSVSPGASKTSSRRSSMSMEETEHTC

BJ [15] = assay: cytotoxicity toward Ras-transformed BJeLR fibroblasts, dose response, cell-based, alamar blue fluorescence, cherrypicked samples (AID 2631); type: functional; conditions: Homo sapiens;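 also: confirmatory dose-response assay in RAS-dependent BJ fibroblasts engineered with TERT, LT and ST, with cytotoxicity read by fluorescence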
[16] = Shn3 3'UTR reporter inhibitors, dose response, cell-based, Clone20 osteoblasts, firefly luciferase, cherry-picked (AID 624132); type: functional;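 also: firefly luciferase luminescence from reporter carrying the Shn3 3'UTR in osteoblasts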
[17] = HepG2 cell cytotoxicity, dose response, cytotoxicity control for Shn3 inhibitor project, CellTiter-Glo, cherry-picked (AID 624134); type: functional, cell-based
[18] = control 3'UTR Renilla luciferase suppression, dose response, counter-screen for Shn3 inhibitor project, cell-based, Clone20-Shn3RL, cherry-picked (AID 624133); type: functional
[19] = A549 cell cytotoxicity, dose response, cytotoxicity control, plate reader, cherry-pick, antagonist series (AID 743412); type: functional, cell-based
[20] = HepG2 cell cytotoxicity, dose response, cytotoxicity control, plate reader, cherry-pick, antagonist series (AID 743416); type: functional, cell-based
[21] = HEK293 cell cytotoxicity, dose response, cytotoxicity control, plate reader, cherry-picked samples (AID 743446); type: functional, cell-based

Compound: C=CCSC(=C(C#N)C#N)c1cc2c([nH]1)CCCC2
- AC50 [1]: 6.73 µM (active)
- AC50 [2]: > 380 µM (inactive)
- IC50 (Vero [3]): > 25 µM (active)
- EC50 (Protein RecA): 6.29 µM (active)
- CC50 (Vero [4]): 10.5 µM (active)

Compound: Cc1cc(S)nc(S)n1
- EC50 [5]: > 104 µM (inactive)

Compound: CCOC(=O)c1c(C)n(C)c2ccc(OCC(O)CN3CCC(C)CC3)cc12 (configuration not stated)
- AC50 [6]: 56.3 µM (active)

Compound: O=c1c2ccccc2nc(/C=C/c2ccc([N+](=O)[O-])o2)n1-c1ccc(O)cc1
- EC50 [7]: 3.91 µM (inconclusive)
- EC50 (BJ [8]): 4.33 µM (active)
- EC50 (BJ [9]): 3.48 µM (inconclusive)
- EC50 [10]: 0.165 µM (active)
- EC50 (BJ [11]): 3.08 µM (inconclusive)
- EC50 [12]: 2.97 µM (active)
- IC50 [13]: > 80 µM (inactive)
- AC50 [14]: 4.45 µM (active)
- EC50 (BJ [15]): 7.06 µM (active)
- AC50 [16]: 3.24 µM (active)
- AC50 [17]: 5.99 µM (active)
- AC50 [18]: 4.9 µM (active)
- AC50 [19]: 4.35 µM (active)
- AC50 [20]: 4.17 µM (active)
- AC50 [21]: 4.16 µM (active)

Compound: NS(=O)(=O)c1ccc(NC(=O)c2cc(-c3cccs3)nc3ccccc23)cc1
- EC50 (BJ [8]): 14.1 µM (active)
- EC50 (BJ [9]): 83.1 µM (active)
- EC50 (BJ [11]): > 75 µM (inconclusive)
- EC50 [12]: 10.8 µM (active)
- EC50 (BJ [15]): > 133 µM (inactive)
